Laboratory results reported in patent publication US6426360B1, “4,5-substituted imidazolyl compounds for the treatment of inflammation” (G D Searle & Co., priority 1994, dated 2002).

Key:
Human COX II = biological target: T1, Human COX II (Homo sapiens, UniProt P35354); assay: COX II activity in vitro (PGE2 ELISA, recombinant enzyme); type: biochemical; conditions: arachidonic acid 10 μM, pre-incubation 10-20 minutes; read-out: Human COX II ID50
T1 construct: A 2.0 kb fragment containing the coding region of either human or murine COX-I or human or murine COX-II; made in house; host or cells: SF9 insect cells (recombinant baculovirus, transfer vector pVL1393)
T1 sequence (P35354 18-604): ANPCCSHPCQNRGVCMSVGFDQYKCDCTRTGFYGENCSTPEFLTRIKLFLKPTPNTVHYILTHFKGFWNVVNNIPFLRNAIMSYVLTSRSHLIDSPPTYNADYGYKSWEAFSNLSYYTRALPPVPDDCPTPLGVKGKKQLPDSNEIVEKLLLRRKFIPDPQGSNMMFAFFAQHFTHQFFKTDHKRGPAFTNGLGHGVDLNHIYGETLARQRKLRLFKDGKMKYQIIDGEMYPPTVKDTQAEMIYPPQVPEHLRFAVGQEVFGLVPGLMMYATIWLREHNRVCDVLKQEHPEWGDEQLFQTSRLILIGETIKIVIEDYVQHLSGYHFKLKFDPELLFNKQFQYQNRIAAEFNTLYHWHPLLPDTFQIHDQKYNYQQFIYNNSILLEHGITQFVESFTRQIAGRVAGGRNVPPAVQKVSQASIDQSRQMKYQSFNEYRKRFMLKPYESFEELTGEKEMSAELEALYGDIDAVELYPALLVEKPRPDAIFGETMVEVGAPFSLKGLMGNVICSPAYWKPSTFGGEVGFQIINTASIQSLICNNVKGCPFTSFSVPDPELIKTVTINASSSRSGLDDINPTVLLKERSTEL
Method: The COX II inhibition activity of the compounds of this invention illustrated in the Examples was determined by the following methods.
(§1) A 2.0 kb fragment containing the coding region of either human or murine COX-I or human or murine COX-II was cloned into a BamH1 site of the baculovirus transfer vector pVL1393 (Invitrogen) to generate the baculovirus transfer vectors for COX-I and COX-II in a manner similar to the method of D. R. O'Reilly et al (Baculovirus Expression Vectors: A Laboratory Manual (1992)). Recombinant baculoviruses were isolated by transfecting 4 μg of baculovirus transfer vector DNA into SF9 insect cells ([…]) along with 200 ng of linearized baculovirus plasmid DNA by the calcium phosphate method. See M. D. Summers and G. E. Smith, A Manual of Methods for Baculovirus Vectors and Insect Cell Culture Procedures, Texas Agric. Exp. Station Bull. 1555 (1987). Recombinant viruses were purified by three rounds of plaque purification and high titer (10E7-10E8 pfu/ml), stocks of virus were prepared. For large scale production, SF9 insect cells were infected in 10 liter fermentors (0.5×10^6/ml) with the recombinant baculovirus stock such that the multiplicity of infection was 0.1. After 72 hours the cells were centrifuged and the cell pellet homogenized in Tris/Sucrose (50 mM: 25%, pH 8.0) containing 1% 3-[(3-cholamidopropyl)dimethylammonio]-1-propanesulfonate (CHAPS). The homogenate was centrifuged at 10,000×G for 30 minutes, and the resultant supernatant was stored at −80° C. before being assayed for COX activity.
(§2) COX activity was assayed as PGE2 formed/μg protein/time using an ELISA to detect the prostaglandin released. CHAPS-solubilized insect cell membranes containing the appropriate COX enzyme were incubated in a potassium phosphate buffer (50 mM, pH 8.0) containing epinephrine, phenol, and heme with the addition of arachidonic acid (10 μM). Compounds were pre-incubated with the enzyme for 10-20 minutes prior to the addition of arachidonic acid. Any reaction between the arachidonic acid and the enzyme was stopped after ten minutes at 37° C./room temperature by transferring 40 μl of reaction mix into 160 μl ELISA buffer and 25 μM indomethacin. The PGE2 formed was measured by standard ELISA technology (Cayman Chemical).

Human COX I = biological target: T2, Human COX I (Homo sapiens, UniProt P23219); assay: COX I activity in vitro (PGE2 ELISA, recombinant enzyme); type: biochemical; conditions: arachidonic acid 10 μM, pre-incubation 10-20 minutes; read-out: Human COX I ID50
T2 construct: A 2.0 kb fragment containing the coding region of either human or murine COX-I or human or murine COX-II; made in house; host or cells: SF9 insect cells (recombinant baculovirus, transfer vector pVL1393)
T2 sequence (P23219 24-599): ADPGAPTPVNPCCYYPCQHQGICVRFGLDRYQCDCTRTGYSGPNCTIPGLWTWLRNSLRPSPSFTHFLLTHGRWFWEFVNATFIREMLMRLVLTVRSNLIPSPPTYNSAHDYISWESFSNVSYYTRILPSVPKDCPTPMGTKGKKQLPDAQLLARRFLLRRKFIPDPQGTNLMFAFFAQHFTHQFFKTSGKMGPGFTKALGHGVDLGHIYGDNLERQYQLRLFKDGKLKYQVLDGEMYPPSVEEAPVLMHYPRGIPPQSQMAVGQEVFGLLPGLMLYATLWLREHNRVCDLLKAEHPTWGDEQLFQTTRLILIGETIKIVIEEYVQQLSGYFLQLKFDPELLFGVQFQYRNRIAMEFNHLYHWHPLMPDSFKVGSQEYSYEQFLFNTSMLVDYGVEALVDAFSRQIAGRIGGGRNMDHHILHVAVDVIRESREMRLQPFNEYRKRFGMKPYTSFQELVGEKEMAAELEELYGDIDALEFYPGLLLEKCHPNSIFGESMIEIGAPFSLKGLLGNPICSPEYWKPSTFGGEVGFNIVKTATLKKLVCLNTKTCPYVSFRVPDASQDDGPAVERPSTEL
Method: as §1, §2

SMILES	IC50 (Human COX II) [µM]	melting point	IC50 (Human COX I) [µM]
CS(=O)(=O)c1ccc(-c2[nH]c(C(O)C(F)(F)F)nc2-c2ccc(F)cc2)cc1 (stereo not shown) [Example 90, 4-(4-Fluorophenyl)-5-(4-(methylsulfonyl)phenyl]-a-(trifluoromethyl)-1H-imidazole-2-methanol]	3.9	126 to 130 °C	> 100
COc1ccc(-c2[nH]c(C(F)(F)F)nc2-c2ccc(S(C)(=O)=O)cc2)cc1F [Example 10, 5-(3-Fluoro-4-methoxyphenyl)-4-[4-(methylsulfonyl)phenyl]-2-(trifluoromethyl)-1H-imidazole]	1.2	228 to 234 °C	63.5
CS(=O)(=O)c1ccc(-c2nc(C(F)(F)F)[nH]c2-c2cccnc2)cc1 [Example 62, 4-(4-(Methylsulfonyl)phenyl]-5-(3-pyridyl)-2-(trifluoromethyl)-1H-imidazole]	2.4		> 100
CCOCc1nc(-c2ccc(F)cc2)c(-c2ccc(S(C)(=O)=O)cc2)[nH]1 [Example 81, 2-(Ethoxymethyl)-4-(4-fluorophenyl)-5-[4-(methylsulfonyl)phenyl]-1H-imidazole]	3.3		77
CS(=O)(=O)c1ccc(-c2nc(C(F)(F)F)[nH]c2-c2ccccc2)cc1 [Example 19, 4-[4-(Methylsulfonyl)phenyl]-5-phenyl-2-(trifluoromethyl)-1H-imidazole]	0.5	228 to 230 °C	> 100
COCc1nc(-c2ccc(S(C)(=O)=O)cc2)c(-c2ccc(F)cc2)[nH]1 [Example 79, 5-(4-Fluorophenyl)-2-(methoxymethyl)-4-[4-(methylsulfonyl)-phenyl]-1H-imidazole]	8.3	169 °C	> 100
CN(C)c1ccc(-c2[nH]c(C(F)(F)F)nc2-c2ccc(S(C)(=O)=O)cc2)cc1 [Example 48, N,N-Dimethyl-4-[4-[4-(methylsulfonyl)phenyl]-2-(trifluoromethyl)-1H-imidazol-5-yl]benzenamine]	8.7	248 to 251 °C	> 100
CC(=O)c1nc(-c2ccc(F)cc2)c(-c2ccc(S(C)(=O)=O)cc2)[nH]1 [Example 83, 1-[4-(4-Fluorophenyl)-5-[4-(methylsulfonyl)phenyl]-1H-imidazol-2-yl] ethanone]	4.3	215 to 217 °C	> 100
CS(=O)(=O)c1ccc(-c2nc(C(F)(F)F)[nH]c2-c2ccccc2Cl)cc1 [Example 12, 5-(2-Chlorophenyl)-4-[4-(methylsulfonyl)phenyl]-2-(trifluoromethyl)-1H-imidazole]	1.3		> 100
CS(=O)(=O)c1ccc(-c2nc(-c3ccco3)[nH]c2-c2ccc(F)cc2)cc1 [Example 7, 5-(4-Fluorophenyl)-2-(2-furyl)-4-(4-methylsulfonylphenyl)-1H-imidazole]	4.8	244 to 246 °C (dec.)	> 100
CS(=O)(=O)c1ccc(-c2nc(C(F)(F)F)[nH]c2-c2ccc(Cl)cc2)cc1 [Example 11, 5-(4-Chlorophenyl)-4-[4-(methylsulfonyl)phenyl]-2-(trifluoromethyl)-1H-imidazole]	0.4		10.4
Cc1cccc(-c2[nH]c(C(F)(F)F)nc2-c2ccc(S(N)(=O)=O)cc2)c1 [Example 60, 5-(3-Methylphenyl)-4-[4-(sulfonamido)phenyl]-2-trifluoromethyl-1H-imidazole]	0.1		6.2
CS(=O)(=O)c1ccc(-c2[nH]c(S(=O)(=O)c3ccccc3)nc2-c2ccc(F)cc2)cc1 [Example 92, 4-(4-Fluorophenyl)-5-[4-(methylsulfonyl)phenyl]-2-(phenyl-sulfonyl)-1H-imidazole]	3		> 100
Cc1ccc(-c2[nH]c(C(F)(F)F)nc2-c2ccc(S(C)(=O)=O)cc2)cc1 [Example 16, 5-(4-Methylphenyl)-4-[4-(methylsulfonyl)phenyl]-2-(trifluoromethyl)-1H-imidazole]	0.6	234 to 238 °C	20
CS(=O)(=O)c1ccc(-c2nc(C(F)(F)F)[nH]c2-c2ccc(F)c(F)c2)cc1 [Example 18, 5-(3,4-Difluorophenyl)-4-[4-(methylsulfonyl)phenyl]-2-(trifluoromethyl)-1H-imidazole]	0.2		> 100
CS(=O)(=O)c1ccc(-c2[nH]c(C(=O)CCc3ccccc3)nc2-c2ccc(F)cc2)cc1 [Example 85]	0.4	227 to 231 °C	> 100
CS(=O)(=O)c1ccc(-c2[nH]c(SCc3ccc4ccccc4n3)nc2-c2ccc(F)cc2)cc1 [Example 50, 2-[[[4-(4-Fluorophenyl)-5-[4-(methylsulfonyl)phenyl]-1H-imidazol-2-yl]thio]methyl]quinoline]	1.5	179 to 182 °C	> 100
CS(=O)(=O)c1ccc(-c2[nH]c(COCc3ccccc3)nc2-c2ccc(F)cc2)cc1 [Example 82, 4-(4-Fluorophenyl)-5-[4-(methylsulfonyl)phenyl]-2-(phenyl-methoxymethyl)-1H-imidazole]	0.7		> 100
CSc1ccc(-c2[nH]c(C(F)(F)F)nc2-c2ccc(S(C)(=O)=O)cc2)cc1Cl [Example 55, 5-[3-Chloro-4-(methylthio)phenyl]-4-[4-(methylsulfonyl)phenyl]-2-(trifluoromethyl)-1H-imidazole]	0.3	255 to 257 °C	> 100
CS(=O)(=O)c1ccc(-c2nc(C(F)(F)F)[nH]c2-c2ccc(F)cc2F)cc1 [Example 17, 5-(2,4-Difluorophenyl)-4-[4-(methylsulfonyl)phenyl]-2-(trifluoromethyl)-1H-imidazole]	0.3		> 100
CS(=O)(=O)c1ccc(-c2nc(C(F)(F)F)[nH]c2-c2ccc3ccccc3c2)cc1 [Example 14]	0.6	228 to 230 °C	2
CS(=O)(=O)c1ccc(-c2nc(/C=C/c3ccccc3)[nH]c2-c2ccc(F)cc2)cc1 [Example 3, 5-(4-Fluorophenyl)-4-(4-methylsulfonylphenyl)-2-(2-phenyl-trans-eth-1-ene)-1H-imidazole]	0.2	221 to 224 °C	2.2
CS(=O)(=O)c1ccc(-c2[nH]c(C(=O)C(F)(F)F)nc2-c2ccc(F)cc2)cc1 [Example 89]	5.3	291.7 °C	> 100
CS(=O)(=O)c1ccc(-c2[nH]c(S(=O)(=O)Cc3ccccc3)nc2-c2ccc(F)cc2)cc1 [Example 51, 4-(4-Fluorophenyl)-5-[4-(methylsulfonyl)phenyl]-2-[(phenylmethyl)sulfonyl]-1H-imidazole]	1.7	211 to 213 °C	> 100
CS(=O)(=O)c1ccc(-c2nc(C(F)(F)F)[nH]c2-c2cccc(C#N)c2)cc1 [Example 63]	1.3		> 100
Cn1c(C(F)(F)F)nc(-c2ccc(S(C)(=O)=O)cc2)c1-c1ccc(F)cc1 [Example 44, 5-(4-Fluorophenyl)-1-methyl-4-[4-(methylsulfonyl)phenyl]-2-(trifluoromethyl)-1H-imidazole]	12.8		> 100
